The source of these data is publication PMC10035904, “Synthesis of novel sulphamethoxazole derivatives and exploration of their anticancer and antimicrobial properties” (PLOS ONE, 2023).

Data set [1] has as its system Escherichia coli ATCC 25922. The data set can be described thus: Serial broth dilution in liquid medium, E. coli. The format is cell-based. The conditions noted are these: ATCC25922, Mueller-Hinton broth, 24 hours, n = 3. As to the method: (§1) Antibacterial and antifungal susceptibility to the compound 16b was tested using a serial broth dilution technique in Mueller-Hinton broth II (BBL, Cockeysville, USA), as described elsewhere. All procedures were done in aseptic conditions. Standard bacterial and fungal cultures were used: Staphylococcus aureus ATCC 25923, Staphylococcus epidermidis ATCC 12228, Escherichia coli ATCC 25922, Enterococcus faecalis ATCC 29212, Klebsiella pneumoniae ATCC 33499, Pseudomonas aeruginosa ATCC 27853, Proteus mirabilis ATCC 12459, Bacillus cereus ATCC 8035, and Candida albicans ATCC 60193. Standard cultures of nonsporic bacteria S. aureus, S. epidermidis, E. coli, E. faecalis, K. pneumoniae, P. aeruginosa and P. mirabilis were cultivated for 20–24 hours at 37°C in Mueller-Hinton Agar (BBL, Cockeysville, USA). A bacterial suspension was prepared from cultivated bacterial cultures in physiological solution according to turbidity standard 0.5 McFarland. Standard culture of sporic bacteria B. cereus was cultivated for 7 days at 37°C in Mueller-Hinton II Agar. […] Then the absorbance was measured at 600 nm using a multi-detection microplate reader. […]
A general note: Broth dilution looks for growth in wells or tubes with falling amounts of substance.

The test system of data set [2] is Staphylococcus aureus ATCC 25923. The data set can be described thus: Serial dilution on solid agar, S. aureus. Particulars: ATCC25923, solid Mueller-Hinton agar, 24 hours. The class given is cell-based. As to the method:
(§2) Antimicrobial activity of compound 16b on solid agar was tested using the same microbial cultures, and the same suspension preparation procedure, as described in above section. All procedures were done in aseptic conditions.
(§3) Mueller-Hinton agar was boiled and kept at to 37 °C during the whole procedure. Compound 16b solution was prepared in DMSO right before experiment. The Agar was mixed with compound solution at different ratios to make the final compound concentrations of 1 mM, 400 μM, 200 μM and 100 μM. Then 10 ml of prepared solution was poured into sterile Petri dishes (85 mm in diameter) and kept in aseptic conditions while the agar solidified. The agar with 0.5% of DMSO served as a negative control. With the help of loop standard microbial cultures by 0.1 ml were poured on the surface of prepared agar with investigative compound. Then Petri dishes were kept for 24 hours in thermostatic conditions.
(§4) The minimal dilution, i.e. the lowest concentration in μg/mL of the investigative and comparison compounds that inhibited visible growth of microorganisms was the minimal inhibitory concentration (MIC).

Data set [3] has as its system Klebsiella pneumoniae ATCC 33499. Nature of the data set: Serial broth dilution in liquid medium, K. pneumoniae. The format is cell-based. Particulars: ATCC33499, Mueller-Hinton broth, 24 hours, n = 3. On the procedure: as §1
Data set [4] concerns Staphylococcus epidermidis ATCC 12228. The data set can be described thus: Serial broth dilution in liquid medium, S. epidermidis. Particulars: Mueller-Hinton broth, 24 hours; result in words. The format is cell-based. As to the method: as §1
The subject of data set [5] is Escherichia coli ATCC 25922. Nature of the data set: Serial dilution on solid agar, E. coli. Particulars: ATCC25922, solid Mueller-Hinton agar, 24 hours. The class given is cell-based. As to the method:
as §2, §3, §4

The test system of data set [6] is human prostate carcinoma cell line PPC-1. The data set can be described thus: MTT cell viability assay, PPC-1. The class given is cell-based. The conditions noted are these: 72 hours of incubation, n = 3, read-out: EC50 against PPC-1. On the procedure: The human clear cell renal cell carcinoma line (CaKi-1) was obtained from American Type Culture Collection (ATCC, Manassas, VA). The human prostate carcinoma cell line PPC-1 was originally obtained from ATCC and kindly provided by Prof. Tambet Teesalu (University of Tartu, Estonia). Human foreskin fibroblasts (HF) CRL-4001 were originally obtained from ATCC and kindly provided by Prof. Helder Santos (University of Helsinki, Finland). Cells were cultured in Dulbecco’s Modified Eagle’s GlutaMAX medium (Gibco (Carlsbad, CA, USA) supplemented with 10,000 U/mL penicillin, 10 mg/mL streptomycin (Gibco), and 10% fetal bovine serum (Gibco). During cell passaging, Tryple Express reagent (Gibco) was used for cell detachment. Cell cultures were grown at 37°C in a humidified atmosphere containing 5% CO2. They were used until the passage of 20.
The effect of synthesized compounds on cell viability was studied using 3-(4,5-dimethylthiazol-2-yl)-2,5-diphenyltetrazolium bromide (MTT; Sigma-Aldrich Co., St Louis, MO, USA) assay, as described elsewhere. […] The absorbance was measured at 570 and 630 nm using a multi-detection microplate reader. The compound effect on cell viability was calculated using a formula (1): Relativecellviability%=A−A0/ANC−A0 (1) Where: […]

Data set [7] has as its system Proteus mirabilis ATCC 12459. The data set can be described thus: Serial broth dilution in liquid medium, P. mirabilis. The class given is cell-based. The conditions noted are these: ATCC12459, Mueller-Hinton broth, 24 hours, n = 3. As to the method: as §1
Data set [8] deals with Staphylococcus aureus ATCC 25923. Nature of the data set: Serial broth dilution in liquid medium, S. aureus. The conditions noted are these: Mueller-Hinton broth, 24 hours; result in words. The class given is cell-based. As to the method: as §1
Data set [9] relates to Proteus mirabilis ATCC 12459. Nature of the data set: Serial dilution on solid agar, P. mirabilis. The format is cell-based. Particulars: ATCC12459, solid Mueller-Hinton agar, 24 hours. As to the method:
as §2, §3, §4

Each structure is given as a SMILES string. In brackets after ≈: the same amount, converted by molar mass. A value given as a limit tells only on which side of the number the result lay.

By EC50 is commonly meant the concentration that produces a half-maximal response. One may read the MIC as the smallest concentration in the dilution series that meets the test's criterion for growth inhibition. Lower therefore signals inhibition by little substance. Usually melting point stands for the temperature of the solid-liquid transition. In turn, `Cc1cc(NS(=O)(=O)c2ccc(NCCC(=O)NN=Cc3ccc([N+](=O)[O-])o3)cc2)no1` [Compound 16b, N-(5-methylisoxazol-3-yl)-4-((3-(2-((5-nitrofuran-2-yl)methylene)hydrazineyl)-3-oxopropyl)amino)-benzenesulfonamide] returned a melting point of 221 to 222 °C. In addition, the EC50 in data set [1] was over 100 µM. Also, the MIC in data set [2] came to 100 µM (≈ 46.2 µg/mL). The compound further came in with a half-maximal effective concentration (EC50) in data set [3] of over 100 µM. Also, the “sensitivity of S. epidermidis in liquid medium” value in [4] was “most sensitive”. The compound also gave an MIC in data set [5] of 400 µM (≈ 185 µg/mL). The EC50 in data set [6] came out at 10.4 ± 3 µM. Also, the EC50 in [7] is over 100 µM. Further, the “sensitivity of S. aureus in liquid medium” value in data set [8] is given as “most sensitive”. The compound also yielded an MIC in [9] of 1000 µM (≈ 462 µg/mL).
